Results: ChEMBL document CHEMBL1133904, “Stereoselective synthesis and antibacterial evaluation of 4-amido-isothiazolidinone oxides” (Bioorg Med Chem Lett, 2001)
≈ marks a conversion by molar mass, not a printed value.

Legend:
[1] = target: T1, Penicillin-binding protein 2 (Staphylococcus aureus, UniProt Q53729); test: Inhibition of Penicillin-binding protein 2 (PBP2) from Staphylococcus aureus
T1 sequence (Q53729 whole entry): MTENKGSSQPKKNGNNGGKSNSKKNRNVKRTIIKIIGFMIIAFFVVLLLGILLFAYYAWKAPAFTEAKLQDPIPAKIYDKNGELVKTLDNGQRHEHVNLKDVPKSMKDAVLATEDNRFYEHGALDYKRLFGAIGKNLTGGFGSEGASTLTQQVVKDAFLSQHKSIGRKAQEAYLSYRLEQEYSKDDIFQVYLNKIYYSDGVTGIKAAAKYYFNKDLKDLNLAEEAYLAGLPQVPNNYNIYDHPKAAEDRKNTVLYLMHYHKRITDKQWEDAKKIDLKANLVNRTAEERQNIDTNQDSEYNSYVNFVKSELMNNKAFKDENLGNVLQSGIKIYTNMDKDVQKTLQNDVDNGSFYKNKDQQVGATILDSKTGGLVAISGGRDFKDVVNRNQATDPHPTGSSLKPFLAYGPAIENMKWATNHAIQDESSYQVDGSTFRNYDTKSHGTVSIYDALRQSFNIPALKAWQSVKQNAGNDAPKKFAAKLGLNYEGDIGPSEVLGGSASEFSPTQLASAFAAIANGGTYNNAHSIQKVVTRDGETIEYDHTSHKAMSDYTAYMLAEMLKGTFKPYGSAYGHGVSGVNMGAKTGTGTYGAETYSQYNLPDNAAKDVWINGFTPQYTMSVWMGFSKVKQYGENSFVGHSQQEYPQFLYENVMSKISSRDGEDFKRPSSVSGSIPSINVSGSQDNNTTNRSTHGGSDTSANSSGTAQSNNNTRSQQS

Klebsiella pneumoniae [2] = test: In vitro antibacterial activity against Klebsiella pneumoniae; range is 62.5->1000; format: functional
Streptococcus pneumoniae [3] = test: In vitro antibacterial activity against Streptococcus pneumoniae; range is 62.5->1000; format: functional
[4] = target: T2, Penicillin-binding protein 1 (Staphylococcus aureus, UniProt Q53725); test: Inhibition of Penicillin-binding protein 1 (PBP1) from Staphylococcus aureus
T2 sequence (Q53725 whole entry): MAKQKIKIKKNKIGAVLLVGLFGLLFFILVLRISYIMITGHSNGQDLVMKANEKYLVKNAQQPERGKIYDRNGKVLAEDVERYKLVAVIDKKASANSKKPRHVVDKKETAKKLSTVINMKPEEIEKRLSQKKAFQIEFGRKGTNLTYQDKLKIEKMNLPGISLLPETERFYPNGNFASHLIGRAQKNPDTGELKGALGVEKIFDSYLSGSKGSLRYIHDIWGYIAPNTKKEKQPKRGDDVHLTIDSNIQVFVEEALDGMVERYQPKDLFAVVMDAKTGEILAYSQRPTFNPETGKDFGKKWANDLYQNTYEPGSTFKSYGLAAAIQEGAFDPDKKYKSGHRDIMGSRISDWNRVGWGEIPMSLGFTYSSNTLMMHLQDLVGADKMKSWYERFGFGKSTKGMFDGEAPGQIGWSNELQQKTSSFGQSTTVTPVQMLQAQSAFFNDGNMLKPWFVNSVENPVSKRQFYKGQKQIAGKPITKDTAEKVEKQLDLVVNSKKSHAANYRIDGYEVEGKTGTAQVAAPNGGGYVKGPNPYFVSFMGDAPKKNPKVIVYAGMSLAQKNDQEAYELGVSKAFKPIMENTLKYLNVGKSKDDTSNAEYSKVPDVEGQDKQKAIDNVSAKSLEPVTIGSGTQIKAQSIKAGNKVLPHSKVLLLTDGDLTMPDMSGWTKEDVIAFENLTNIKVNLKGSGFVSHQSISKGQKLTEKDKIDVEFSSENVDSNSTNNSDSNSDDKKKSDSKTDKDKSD

[5] = Half life period was measured at pH 7.4 in phosphate buffer; format: ADME
[6] = target: T3, Penicillin-binding protein 3 (Staphylococcus aureus, UniProt Q5D1F0); test: Inhibition of Penicillin-binding protein 3 (PBP3) from Staphylococcus aureus
T3 sequence (Q5D1F0 whole entry): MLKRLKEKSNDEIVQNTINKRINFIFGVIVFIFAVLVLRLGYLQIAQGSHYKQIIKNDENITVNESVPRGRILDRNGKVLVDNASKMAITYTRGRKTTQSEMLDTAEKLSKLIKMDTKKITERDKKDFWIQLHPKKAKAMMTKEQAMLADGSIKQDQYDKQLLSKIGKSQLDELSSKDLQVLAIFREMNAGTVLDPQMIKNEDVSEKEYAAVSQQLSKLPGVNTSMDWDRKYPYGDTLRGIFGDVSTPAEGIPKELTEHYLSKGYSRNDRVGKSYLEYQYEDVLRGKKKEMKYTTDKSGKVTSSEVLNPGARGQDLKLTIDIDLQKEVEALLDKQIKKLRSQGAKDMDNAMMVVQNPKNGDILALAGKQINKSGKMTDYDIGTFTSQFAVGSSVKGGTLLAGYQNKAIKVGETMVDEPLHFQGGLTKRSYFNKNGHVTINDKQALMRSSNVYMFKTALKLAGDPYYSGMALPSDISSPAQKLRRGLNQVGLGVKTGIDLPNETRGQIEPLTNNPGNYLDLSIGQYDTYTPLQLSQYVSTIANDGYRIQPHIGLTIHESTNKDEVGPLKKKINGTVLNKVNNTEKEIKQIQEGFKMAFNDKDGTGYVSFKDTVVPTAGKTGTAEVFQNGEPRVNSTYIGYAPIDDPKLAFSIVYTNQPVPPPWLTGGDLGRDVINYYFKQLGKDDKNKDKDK

Staphylococcus aureus [7] = test: In vitro antibacterial activity against Staphylococcus aureus; range is 62.5->1000; format: functional
Enterobacter cloacae [8] = test: In vitro antibacterial activity against Enterobacter cloacae; format: functional
Moraxella catarrhalis [9] = test: In vitro antibacterial activity against Moraxella catarrhalis; format: functional
Klebsiella pneumoniae [10] = test: In vitro antibacterial activity against Klebsiella pneumoniae; format: functional
Klebsiella pneumoniae [11] = test: In vitro antibacterial activity against Klebsiella pneumoniae; range is 2->32; format: functional
Streptococcus pneumoniae [12] = test: In vitro antibacterial activity against Streptococcus pneumoniae; range is 2->32; format: functional
Staphylococcus aureus [13] = test: In vitro antibacterial activity against Staphylococcus aureus; range is 2->32; format: functional
Moraxella catarrhalis [14] = test: In vitro antibacterial activity against Moraxella catarrhalis; range is 31.3->1000; format: functional
Enterobacter cloacae [15] = test: In vitro antibacterial activity against Enterobacter cloacae; range is 31.3->1000; format: functional
Klebsiella pneumoniae [16] = test: In vitro antibacterial activity against Klebsiella pneumoniae; range is 31.3->1000; format: functional
Klebsiella pneumoniae [17] = test: In vitro antibacterial activity against Klebsiella pneumoniae; range is 1.6->100; format: functional
Staphylococcus aureus [18] = test: In vitro antibacterial activity against Staphylococcus aureus; range is 1.6->100; format: functional
Streptococcus pneumoniae [19] = test: In vitro antibacterial activity against Streptococcus pneumoniae; range is 1.6->100; format: functional
Klebsiella pneumoniae [20] = test: In vitro antibacterial activity against Klebsiella pneumoniae; range is 125->1000; format: functional
Moraxella catarrhalis [21] = test: In vitro antibacterial activity against Moraxella catarrhalis; range is 125->1000; format: functional
Enterobacter cloacae [22] = test: In vitro antibacterial activity against Enterobacter cloacae; range is 125->1000; format: functional
Klebsiella pneumoniae [23] = test: In vitro antibacterial activity against Klebsiella pneumoniae; range is 15.6->1000; format: functional
Moraxella catarrhalis [24] = test: In vitro antibacterial activity against Moraxella catarrhalis; range is 15.6->1000; format: functional
Enterobacter cloacae [25] = test: In vitro antibacterial activity against Enterobacter cloacae; range is 15.6->1000; format: functional
Klebsiella pneumoniae [26] = test: In vitro antibacterial activity against Klebsiella pneumoniae; range is 16->1000; format: functional
Enterobacter cloacae [27] = test: In vitro antibacterial activity against Enterobacter cloacae; range is 16->1000; format: functional
Moraxella catarrhalis [28] = test: In vitro antibacterial activity against Moraxella catarrhalis; range is 16->1000; format: functional
Klebsiella pneumoniae [29] = test: In vitro antibacterial activity against Klebsiella pneumoniae; range is 62.6->1000; format: functional
Enterobacter cloacae [30] = test: In vitro antibacterial activity against Enterobacter cloacae; range is 62.6->1000; format: functional
Moraxella catarrhalis [31] = test: In vitro antibacterial activity against Moraxella catarrhalis; range is 62.6->1000; format: functional

Compound | IC50 [1] [µM] | IC50 [4] [µM] | half-life [5] [h] | IC50 [6] [µM] | MIC (Enterobacter cloacae [8]) [µg/mL] | MIC (Moraxella catarrhalis [9]) [µg/mL] | MIC (Klebsiella pneumoniae [10]) [µg/mL] | other results
O=C(O)CN1C[C@H](NC(=O)COc2ccccc2)C1=O | > 898 | > 898 | > 32 | > 898 | – | – | – | MIC (Klebsiella pneumoniae [2]): 62.5 µg/mL (≈ 225 µM); MIC (Streptococcus pneumoniae [3]): 62.5 µg/mL (≈ 225 µM); MIC (Staphylococcus aureus [7]): 62.5 µg/mL (≈ 225 µM)
CC(C)[C@@H](C(=O)O)N1C(=O)[C@@H](NC(=O)COc2ccccc2)C[S+]1[O-] (stereo partly specified) | > 679 | > 679 | < 1.4 | > 679 | > 1000 | > 1000 | > 1000 | –
CC(C)[C@H](C(=O)O)N1C[C@H](NC(=O)COc2ccccc2)C1=O | > 780 | > 780 | > 48 | > 780 | – | – | – | MIC (Klebsiella pneumoniae [11]): 2 µg/mL (≈ 6.24 µM); MIC (Streptococcus pneumoniae [12]): 2 µg/mL (≈ 6.24 µM); MIC (Staphylococcus aureus [13]): 2 µg/mL (≈ 6.24 µM)
CC(C)C(C(=O)OC(C)(C)C)N1C(=O)C(NC(=O)OCc2ccccc2)CS1(=O)=O (stereo unspecified) | > 568 | > 568 | 15.8 | > 568 | – | – | – | MIC (Moraxella catarrhalis [14]): 31.3 µg/mL (≈ 71.1 µM); MIC (Enterobacter cloacae [15]): 31.3 µg/mL (≈ 71.1 µM); MIC (Klebsiella pneumoniae [16]): 31.3 µg/mL (≈ 71.1 µM)
O=C(O)CN1C(=O)C(NC(=O)COc2ccccc2)CS1(=O)=O (stereo unspecified) | > 730 | > 730 | 11.9 | > 730 | > 100 | > 100 | > 100 | –
CO/N=C(/C(=O)NC1CS(=O)(=O)N(CC(=O)O)C1=O)c1csc(N)n1.O=C(O)C(F)(F)F (stereo unspecified) | > 495 | > 495 | 5.6 | > 495 | > 64 | > 64 | > 64 | –
CCCCNOS(=O)(=O)N1C[C@H](NC(=O)Cc2ccccc2)C1=O | > 703 | > 703 | – | > 703 | – | – | – | MIC (Klebsiella pneumoniae [17]): 1.6 µg/mL (≈ 4.5 µM); MIC (Staphylococcus aureus [18]): 1.6 µg/mL (≈ 4.5 µM); MIC (Streptococcus pneumoniae [19]): 1.6 µg/mL (≈ 4.5 µM)
CC(C(=O)OC(C)(C)C)N1C(=O)C(NC(=O)Oc2ccc(Cl)cc2)CS1(=O)=O (stereo unspecified) | > 578 | > 578 | – | > 578 | – | – | – | MIC (Moraxella catarrhalis [14]): 31.3 µg/mL (≈ 72.3 µM); MIC (Enterobacter cloacae [15]): 31.3 µg/mL (≈ 72.3 µM); MIC (Klebsiella pneumoniae [16]): 31.3 µg/mL (≈ 72.3 µM)
CC(C(=O)O)N1C(=O)C(NC(=O)Oc2ccc(Cl)cc2)CS1(=O)=O (stereo unspecified) | > 664 | > 664 | 15.7 | > 664 | – | – | – | MIC (Klebsiella pneumoniae [20]): 125 µg/mL (≈ 332 µM); MIC (Moraxella catarrhalis [21]): 125 µg/mL (≈ 332 µM); MIC (Enterobacter cloacae [22]): 125 µg/mL (≈ 332 µM)
CCCCNOS(=O)(=O)N1C(=O)[C@@H](NC(=O)COc2ccc(Cl)cc2)CS1(=O)=O | > 532 | > 532 | < 0.4 | > 532 | > 64 | > 64 | > 64 | –
O=C(CN1C(=O)C(NC(=O)Oc2ccc(Cl)cc2)CS1(=O)=O)OCc1ccccc1 (stereo unspecified) | > 552 | > 552 | 5.1 | > 552 | – | – | – | MIC (Klebsiella pneumoniae [23]): 15.6 µg/mL (≈ 34.4 µM); MIC (Moraxella catarrhalis [24]): 15.6 µg/mL (≈ 34.4 µM); MIC (Enterobacter cloacae [25]): 15.6 µg/mL (≈ 34.4 µM)
CC(C)[C@@H](C(=O)O)N1C(=O)C(NC(=O)COc2ccccc2)CS1(=O)=O (stereo partly specified) | > 650 | > 650 | 22 | > 650 | – | – | – | MIC (Klebsiella pneumoniae [26]): 16 µg/mL (≈ 41.6 µM); MIC (Enterobacter cloacae [27]): 16 µg/mL (≈ 41.6 µM); MIC (Moraxella catarrhalis [28]): 16 µg/mL (≈ 41.6 µM)
CC(C)[C@H](C(=O)OCc1ccccc1)N1C(=O)[C@@H](NC(=O)COc2ccccc2)C[S+]1[O-] (stereo partly specified) | > 545 | > 545 | < 0.5 | > 545 | – | – | – | MIC (Klebsiella pneumoniae [29]): 62.6 µg/mL (≈ 137 µM); MIC (Enterobacter cloacae [30]): 62.6 µg/mL (≈ 137 µM); MIC (Moraxella catarrhalis [31]): 62.6 µg/mL (≈ 137 µM)
CC(C)[C@H](C(=O)O)N1C(=O)[C@@H](NC(=O)COc2ccccc2)C[S+]1[O-] (stereo partly specified) | > 679 | > 679 | < 3.3 | > 679 | > 1000 | > 1000 | > 1000 | –
